Measured values published in ChEMBL document CHEMBL6121054, “Discovery of Metabolic Reprogramming 2-Quinolones as Effective Antimicrobials for MRSA-Infected Wound Therapy” (J Med Chem, 2025).
Values after ≈ are worked out from the molar mass of the structure shown.

Legend:
Assay type in all cases: functional
Listeria monocytogenes [1] = assay: Antibacterial activity against Listeria monocytogenes ATCC 19115 incubated for 16 to 24 hrs by broth microdilution method; details: time 16-24 hrs
Staphylococcus aureus [2] = assay: Antibacterial activity against Staphylococcus aureus ATCC 25923 incubated for 16 to 24 hrs by broth microdilution method; details: time 16-24 hrs
Staphylococcus aureus [3] = assay: Antibacterial activity against Staphylococcus aureus ATCC 29213 incubated for 16 to 24 hrs by broth microdilution method; details: time 16-24 hrs
Staphylococcus aureus [4] = assay: Antibacterial activity against Staphylococcus aureus USA300 incubated for 16 to 24 hrs by broth microdilution method; details: time 16-24 hrs
Staphylococcus aureus [5] = assay: Antibacterial activity against Staphylococcus aureus USA400 incubated for 16 to 24 hrs by broth microdilution method; details: time 16-24 hrs
Staphylococcus aureus [6] = assay: Antibacterial activity against Staphylococcus aureus NCTC 8325-4 incubated for 16 to 24 hrs by broth microdilution method; details: time 16-24 hrs
Staphylococcus aureus [7] = assay: Antibacterial activity against Staphylococcus aureus ATCC 25904 incubated for 16 to 24 hrs by broth microdilution method; details: time 16-24 hrs
Listeria monocytogenes [8] = assay: Antibacterial activity against Listeria monocytogenes EGD incubated for 16 to 24 hrs by broth microdilution method; details: time 16-24 hrs
Staphylococcus aureus [9] = assay: Antibacterial activity against Staphylococcus aureus DU1090 incubated for 16 to 24 hrs by broth microdilution method; details: time 16-24 hrs
Staphylococcus aureus [10] = assay: Antibacterial activity against methicillin-resistant Staphylococcus aureus MRSA 2 incubated for 16 to 24 hrs by broth microdilution method; details: time 16-24 hrs
Staphylococcus aureus [11] = assay: Antibacterial activity against methicillin-resistant Staphylococcus aureus MRSA 1 incubated for 16 to 24 hrs by broth microdilution method
Streptococcus suis = assay: Antibacterial activity against Streptococcus suis ZY05719 incubated for 16 to 24 hrs by broth microdilution method; details: time 16-24 hrs
Staphylococcus aureus [12] = assay: Induction of resistance development in Staphylococcus aureus USA300 assessed as fold increase in MIC incubated for 24 hrs measured after 14 passages by broth microdilution method
[13] = Staphylococcus aureus, MRSA 1, time 16-24 hrs, read-out: MIC

| Structure (SMILES) | MIC (Listeria monocytogenes [1]) [µg/mL] | MIC (Staphylococcus aureus [2]) [µg/mL] | MIC (Staphylococcus aureus [3]) [µg/mL] | MIC (Staphylococcus aureus [4]) [µg/mL] | MIC (Staphylococcus aureus [5]) [µg/mL] | MIC (Staphylococcus aureus [6]) [µg/mL] | MIC (Staphylococcus aureus [7]) [µg/mL] | MIC (Listeria monocytogenes [8]) [µg/mL] | MIC (Staphylococcus aureus [9]) [µg/mL] | MIC (Staphylococcus aureus [10]) [µg/mL] | MIC (Staphylococcus aureus [11]; [13]) [µg/mL] | MIC (Staphylococcus aureus [11]; time 16-24 hrs) [µg/mL] | MIC (Streptococcus suis) [µg/mL] | fold change (FC) (Staphylococcus aureus [12]) |
| --- | --- | --- | --- | --- | --- | --- | --- | --- | --- | --- | --- | --- | --- | --- |
| CCn1c(=O)c(C(=O)Nc2nnc(-c3ncccc3C)s2)c(O)c2ccccc21 | > 8 | > 8 | > 8 | > 8 | > 8 | > 8 | > 8 | > 8 | > 8 |  |  |  |  |  |
| CNC(C)[C@@H]1CC[C@@H](N)[C@@H](O[C@H]2[C@H](O)[C@@H](O[C@H]3OC[C@](C)(O)[C@H](NC)[C@H]3O)[C@H](N)C[C@@H]2N)O1.CN[C@@H]1[C@@H](O)[C@@H](O[C@@H]2[C@@H](O)[C@H](O[C@H]3O[C@H](C(C)N)CC[C@H]3N)[C@@H](N)C[C@H]2N)OC[C@]1(C)O.CN[C@@H]1[C@@H](O)[C@@H](O[C@@H]2[C@@H](O)[C@H](O[C@H]3O[C@H](CN)CC[C@H]3N)[C@@H](N)C[C@H]2N)OC[C@]1(C)O (some centres not stated) | 6 | 2.67 | 3 | 4 | 3.67 | 5.33 | > 4 |  | 1.54 | > 4 | > 4 | 5.33 | 6 |  |
| CN[C@H](CC(C)C)C(=O)N[C@H]1C(=O)N[C@@H](CC(N)=O)C(=O)N[C@H]2C(=O)N[C@H]3C(=O)N[C@H](C(=O)N[C@H](C(=O)O)c4cc(O)cc(O)c4-c4cc3ccc4O)[C@H](O)c3ccc(c(Cl)c3)Oc3cc2cc(c3O[C@@H]2O[C@H](CO)[C@@H](O)[C@H](O)[C@H]2O[C@H]2C[C@](C)(N)[C@H](O)[C@H](C)O2)Oc2ccc(cc2Cl)[C@H]1O [VANCOMYCIN] | 1.83 (≈ 1.26 µM) | 2.67 (≈ 1.84 µM) | 1.71 (≈ 1.18 µM) | 2.33 (≈ 1.61 µM) | 2.5 (≈ 1.73 µM) | 1.83 (≈ 1.26 µM) | 3 (≈ 2.07 µM) |  | 1.67 (≈ 1.15 µM) | 1.33 (≈ 0.918 µM) | 2.33 (≈ 1.61 µM) | 1.33 (≈ 0.918 µM) | 0.15 (≈ 0.104 µM) | 16 |
| CC1(C)S[C@H]([C@H](NC(=O)Cc2ccccc2)C(=O)NCc2ccccc2)N[C@H]1C(=O)N[C@H](Cc1ccccc1)[C@H](O)CC(=O)NCc1nc2ccccc2[nH]1 | 0.63 (≈ 0.827 µM) | 0.63 (≈ 0.827 µM) | 0.63 (≈ 0.827 µM) | 0.63 (≈ 0.827 µM) | 0.63 (≈ 0.827 µM) | 0.63 (≈ 0.827 µM) | 0.63 (≈ 0.827 µM) | 0.63 (≈ 0.827 µM) | 0.63 (≈ 0.827 µM) |  |  |  |  |  |
| CN(C)c1cc(NC(=O)CNC(C)(C)C)c(O)c2c1C[C@H]1C[C@H]3[C@H](N(C)C)C(O)=C(C(N)=O)C(=O)[C@@]3(O)C(O)=C1C2=O [TIGECYCLINE] | 0.2 (≈ 0.341 µM) | 0.92 (≈ 1.57 µM) | 0.1 (≈ 0.171 µM) | 0.16 (≈ 0.273 µM) | 0.19 (≈ 0.324 µM) | 0.27 (≈ 0.461 µM) | 0.83 (≈ 1.42 µM) |  | 0.23 (≈ 0.393 µM) | 0.54 (≈ 0.922 µM) |  |  | 0.07 (≈ 0.12 µM) |  |
| CCn1c(=O)c(C(=O)Nc2nnc(-c3cccc(C)n3)s2)c(O)c2ccccc21 | 0.02 (≈ 0.0491 µM) | 0.04 (≈ 0.0982 µM) | 0.2 (≈ 0.491 µM) | 0.17 (≈ 0.417 µM) | 0.08 (≈ 0.196 µM) | 0.05 (≈ 0.123 µM) | 0.04 (≈ 0.0982 µM) | 0.02 (≈ 0.0491 µM) | 0.02 (≈ 0.0491 µM) |  |  |  |  |  |
| CCn1c(=O)c(C(=O)Nc2nnc(-c3ccc(C(F)(F)F)cn3)s2)c(O)c2ccccc21 | 0.29 (≈ 0.628 µM) | 5.33 (≈ 11.6 µM) | > 8 | 4.67 (≈ 10.1 µM) | 6.67 (≈ 14.5 µM) | > 8 | 3.42 (≈ 7.41 µM) | 0.21 (≈ 0.455 µM) | 0.96 (≈ 2.08 µM) |  |  |  |  |  |
| CCn1c(=O)c(C(=O)Nc2nnc(-c3ccc(Br)cn3)s2)c(O)c2ccccc21 | 0.05 (≈ 0.106 µM) | 0.2 (≈ 0.423 µM) | 1.13 (≈ 2.39 µM) | 0.06 (≈ 0.127 µM) | 0.07 (≈ 0.148 µM) | 0.27 (≈ 0.572 µM) | 0.19 (≈ 0.402 µM) | 0.06 (≈ 0.127 µM) | 0.05 (≈ 0.106 µM) |  |  |  |  |  |
| CCn1c(=O)c(C(=O)Nc2nnc(-c3cc(C)ccn3)s2)c(O)c2ccccc21 | 0.49 (≈ 1.2 µM) | 0.15 (≈ 0.368 µM) | 0.18 (≈ 0.442 µM) | 0.14 (≈ 0.344 µM) | 0.14 (≈ 0.344 µM) | 0.1 (≈ 0.245 µM) | 0.19 (≈ 0.466 µM) | 0.16 (≈ 0.393 µM) | 0.12 (≈ 0.295 µM) |  |  |  |  |  |
| CCn1c(=O)c(C(=O)Nc2nnc(-c3ncccc3F)s2)c(O)c2ccccc21 | 0.2 (≈ 0.486 µM) | 0.15 (≈ 0.365 µM) | 0.14 (≈ 0.34 µM) | 0.11 (≈ 0.267 µM) | 0.17 (≈ 0.413 µM) | 0.1 (≈ 0.243 µM) | 0.08 (≈ 0.194 µM) | 0.17 (≈ 0.413 µM) | 0.1 (≈ 0.243 µM) |  |  |  |  |  |
| CCn1c(=O)c(C(=O)Nc2nnc(-c3ccc(F)cn3)s2)c(O)c2ccccc21 | 0.5 (≈ 1.22 µM) | 0.46 (≈ 1.12 µM) | 0.67 (≈ 1.63 µM) | 0.46 (≈ 1.12 µM) | 1.29 (≈ 3.14 µM) | 1.25 (≈ 3.04 µM) | 0.48 (≈ 1.17 µM) | 0.49 (≈ 1.19 µM) | 0.5 (≈ 1.22 µM) |  |  |  |  |  |
